Columns and labels:
[1] = test system: normal human primary B cells; experiment: Annexin V apoptosis of normal B cells; assay type: cell-based; conditions: 1μM, vs DMSO
[2] = test system: SUPB15 cells; experiment: Annexin V apoptosis flow cytometry; assay type: cell-based, human; conditions: 24 h
Experimental: Human pre-B ALL cell lines NALM6 and SUPB15 were purchased from American Type Culture Collection (ATCC, Maryland, USA). All pre-B ALL cell lines were maintained in cell culture media and conditions as recommended by the ATCC. Cells were treated with GZD824 for 24 hours. GZD824 (3μM, 1μM, or 0.5μM) was used in the experiments unless otherwise noted. NALM6 and SUPB15 cells were maintained in RPMI-1640 medium (Gibco, New York, NY, USA) with 10% fetal bovine serum (Biochrom, Melbourne, Australia). For identification of apoptotic cells among NALM6, SUPB15, and primary pre-B ALL cells, the GZD824-treated cells were stained with Annexin V Apoptosis Detection Kit (88-8007, BD ebioscience, CA, USA) according to the manufacturer's instructions (Affymetrix ebioscience, CA, USA) and then subjected to flow cytometric analysis by the Accuri™ C6 (BD Biosciences, CA, USA). For the in vitro drug sensitivity test in Figure 6A, the human CD45+ cells in spleen and bone marrow from sick mice account for over 95% of the total. We enriched human CD45+ cells in PB by MACS according to the manufacturer's instruction. After the enrichment, the purity of human CD45+ cell in PB reached 95%. […] All data were analyzed with FlowJo software (Tree Star, Inc., Ashland, USA).

[3] = target: T1, ABL (Homo sapiens, UniProt P00519); experiment: Active-site-dependent competition kinase binding assay (KINOMEscan)
T1 construct: purchased Ambit Bioscience (CA, USA), KINOMEscan service
Experimental: (§1) Kinase assay was performed as previously described. The binding activities of GZD824 were analyzed by KINOME scan system conducted by Ambit Bioscience (CA, USA). Briefly, kinases were tagged with DNA. The ligands were biotinylated and immobilized to streptavidin coated beads. The binding reactions were assembled by incubating DNA-tagged kinases, immobilized ligands, and test compounds in binding reactions (20% SeaBlock, 0.17×PBS, 0.05% tween-20, 6 mM DTT) for 1.0 h at room temperature. The affinity beads were washed with washing buffer (1×PBS, 0.05% Tween-20) first and then elution buffer (1×PBS, 0.05% Tween 20, 0.5μM nonbiotinylated affinity ligands). The kinase concentration in the eluate was determined by quantitative PCR of the DNA tagged to the kinase. The ability of the test compound to bind to the kinase was evaluated with percent control (%) as (test compound signal −positive control signal)/negative control signal−positive control signal) ×100%. Negative control is DMSO control (100% ctrl) and positive control is control compound (0% ctrl).

[4] = target: T2, SRC (Homo sapiens, UniProt P12931); experiment: as above
T2 construct: purchased Ambit Bioscience (CA, USA), KINOMEscan service
Experimental: as §1

[5] = test system: MAPK; experiment: as above
Experimental: as §1

[6] = test system: JAK; experiment: as above
Experimental: as §1

[7] = test system: IRS1; experiment: Western blot of NALM6 cells; assay type: cell-based, human; conditions: NALM6, 1μM or 3μM, 24 hours
Experimental: (§2) Figure 6 GZD824 inhibits PI3K/AKT signaling in pre-B ALL cells A. […] Bars represent the mean percentages of AnnexinV+ cells in each group. B. Primary pre-B ALL cells from spleen of P#1 xenograft mouse treated with DMSO, GZD824 (1μM), IGF-1 (10ng/ML), or both. Bars represent the mean percentages of AnnexinV+ cells in each group. C. Western blot analysis of NALM6 cells. Cells were treated with DMSO, GZD824 (1μM), or GZD824 (3μM) for 24 hours. Lysates were analyzed with antibodies against IRS1, phosphate AKT, and AKT. D. Western blot analysis of primary pre-B ALL cells. Primary cells treated with GZD824 (1μM), IGF-1 (10ng/ML), or both for 24 hours. Lysates were analyzed with antibodies against Irs1, phosphate AKT, and AKT. For Western blot analysis, 30 μg of total protein extracts prepared from NALM6 or primary pre-B ALL cells from SP of PDX mice were separated on SDS-PAGE and transferred to a PVDF membrane (Bio-Rad, Hercules, CA, USA). […]

[8] = test system: phosphorylated AKT (Ser473); experiment: Western blot of NALM6 cells; assay type: cell-based, human; conditions: NALM6, 1μM or 3μM, 24 hours
Experimental: as §2

T2 sequence (P12931 whole entry): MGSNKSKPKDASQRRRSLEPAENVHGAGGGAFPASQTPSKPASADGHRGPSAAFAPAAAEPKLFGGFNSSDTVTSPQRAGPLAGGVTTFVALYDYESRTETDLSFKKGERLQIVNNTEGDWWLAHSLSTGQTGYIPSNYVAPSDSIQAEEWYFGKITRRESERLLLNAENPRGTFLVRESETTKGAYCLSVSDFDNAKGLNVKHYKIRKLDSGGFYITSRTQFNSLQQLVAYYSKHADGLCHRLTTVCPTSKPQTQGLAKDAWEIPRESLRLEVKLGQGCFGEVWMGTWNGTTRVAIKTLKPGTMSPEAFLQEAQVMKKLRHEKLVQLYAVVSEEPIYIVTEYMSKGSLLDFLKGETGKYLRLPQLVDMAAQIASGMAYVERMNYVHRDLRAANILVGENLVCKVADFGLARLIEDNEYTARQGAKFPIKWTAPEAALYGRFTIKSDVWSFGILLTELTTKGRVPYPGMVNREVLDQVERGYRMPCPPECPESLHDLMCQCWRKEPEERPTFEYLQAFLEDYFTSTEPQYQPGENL
T1 sequence (P00519 whole entry): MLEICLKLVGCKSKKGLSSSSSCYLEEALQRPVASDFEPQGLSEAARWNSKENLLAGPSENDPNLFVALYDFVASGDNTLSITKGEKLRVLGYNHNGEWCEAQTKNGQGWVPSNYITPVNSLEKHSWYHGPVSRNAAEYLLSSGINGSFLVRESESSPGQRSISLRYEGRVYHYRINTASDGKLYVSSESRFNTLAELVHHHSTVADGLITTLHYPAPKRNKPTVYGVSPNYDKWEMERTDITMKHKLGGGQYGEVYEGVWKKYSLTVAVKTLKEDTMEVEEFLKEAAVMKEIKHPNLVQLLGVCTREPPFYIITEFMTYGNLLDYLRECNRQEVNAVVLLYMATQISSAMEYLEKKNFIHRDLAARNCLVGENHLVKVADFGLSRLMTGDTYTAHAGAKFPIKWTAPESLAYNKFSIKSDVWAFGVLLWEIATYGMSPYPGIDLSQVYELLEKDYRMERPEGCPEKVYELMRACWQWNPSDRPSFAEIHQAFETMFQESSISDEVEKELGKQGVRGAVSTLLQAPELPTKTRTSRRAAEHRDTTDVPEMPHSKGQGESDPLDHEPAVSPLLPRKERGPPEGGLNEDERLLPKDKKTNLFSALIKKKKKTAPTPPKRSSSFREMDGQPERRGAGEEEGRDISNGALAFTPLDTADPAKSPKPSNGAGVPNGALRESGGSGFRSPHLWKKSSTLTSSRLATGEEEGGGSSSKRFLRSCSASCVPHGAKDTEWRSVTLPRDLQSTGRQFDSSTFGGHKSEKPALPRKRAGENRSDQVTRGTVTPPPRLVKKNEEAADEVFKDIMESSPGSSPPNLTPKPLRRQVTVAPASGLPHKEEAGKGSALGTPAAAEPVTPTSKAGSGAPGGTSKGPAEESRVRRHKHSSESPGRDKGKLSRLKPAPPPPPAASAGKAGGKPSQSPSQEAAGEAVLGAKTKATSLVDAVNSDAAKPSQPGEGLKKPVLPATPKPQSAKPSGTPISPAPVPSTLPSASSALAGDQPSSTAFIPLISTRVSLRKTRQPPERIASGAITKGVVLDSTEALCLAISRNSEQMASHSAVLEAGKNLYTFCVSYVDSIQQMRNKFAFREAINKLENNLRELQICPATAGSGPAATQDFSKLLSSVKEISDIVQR

## Cc1ccc(C(=O)Nc2ccc(CN3CCN(C)CC3)c(C(F)(F)F)c2)cc1C#Cc1cnc2[nH]ncc2c1 [GZD824]
[1]
  apoptosis in normal human primary B cells: did not induce apoptosis
[2]; SUPB15, 1μM
  apoptotic rate: moderate
[2]; SUPB15, 3μM
  cells undergoing apoptosis (AnnexinV+): 48.3%
[3]; read-out: %Ctrl@10nM
  remaining binding at 0.01 µM: 2.8%
[3]; read-out: %Ctrl@100nM
  remaining binding at 0.1 µM: 0.15%
[4]; SRC, 10 nM, mean of two independent experiments, read-out: %Ctrl@10nM
  remaining binding at 0.01 µM: 26%
[4]; SRC, 100 nM, mean of two independent experiments, read-out: %Ctrl@100nM
  remaining binding at 0.1 µM: 0.75%
[4]; kinase assay
  binding to the SRC kinase (in words): high affinity
[5]; MAPK, 10 nM, mean of two independent experiments
  %Ctrl@10nM: 81%
[5]; MAPK, 100 nM, mean of two independent experiments
  %Ctrl@100nM: 81%
[5]; kinase assay
  binding to MAPK (in words): does not bind
[6]; JAK, 10 nM, mean of two independent experiments
  %Ctrl@10nM: 100%
[6]; JAK, 100 nM, mean of two independent experiments
  %Ctrl@100nM: 100%
[6]; kinase assay
  binding to JAK (in words): does not bind
[7]
  levels of IRS1 protein: reduced
[8]
  levels of phosphorylated AKT (Ser473): reduced

Reference: article PMC5675611, “GZD824 suppresses the growth of human B cell precursor acute lymphoblastic leukemia cells by inhibiting the SRC kinase and PI3K/AKT pathways” (Oncotarget, 2016)
